Data on 2 compounds can be found in PMC11940194, “Synthesis, Antiproliferative Activity, and ADME Profiling of Novel Racemic and Optically Pure Aryl-Substituted Purines and Purine Bioisosteres” (Biomolecules, 2025).

Entries after “also recorded” stand apart in the source; their conditions may differ. Where only a bound is given, the exact number is not on record here.

For data set [1], the system named is colorectal carcinoma (HT-29) cells. Description: Antiproliferative MTT assay, HT-29. The format is cell-based, human. Conditions: Homo sapiens, HT-29, 72 h, 72 h incubation, MTT; mean ± SD. The gist of the method:
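Cells grown in DMEM or MEM with 10% FBS at 37 °C, 5% CO2; tumour lines seeded at 3000 and fibroblasts at 5000 cells/well. Compounds added at 0.01 to 100 µM for 72 h, growth read by MTT. IC50 from dose–response curves by linear regression, tetraplicates, two experiments.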

The test system of data set [2] is MCF-7, CFPAC-1, HT-29, HepG2 tumor cell lines and HFF-1 fibroblasts. Description: Antiproliferative activity, whole cell line panel. The format is cell-based, human. Conditions: tested cell lines. As to the method:
The human ATCC tumor cell lines breast adenocarcinoma (MCF7), colorectal carcinoma (HT-29), pancreatic ductal adenocarcinoma (CFPAC-1), hepatocellular carcinoma (HepG2), and normal skin fibroblasts (HFF) derived from ATCC (American Type Culture Collection) were cultured in Dulbecco’s Modified Eagle Medium (DMEM) or Minimum Essential Medium (MEM) supplemented with 10% fetal bovine serum (FBS), 2 mM L-glutamine, 100 U/mL penicillin, and 100 µg/mL streptomycin (Lonza, Basel, Switzerland) in a humidified atmosphere with 5% CO2 at 37 °C. For the experiment, carcinoma cell lines and normal human cell lines were seeded in 96-well microtiter plates at a density of 3000 cells per well and 5000 cells per well, respectively, depending on the doubling time of the specific cell line. The test substances were then added at fivefold, tenfold dilutions (0.01 to 100 µM), freshly prepared in the growth medium on the day of testing, and incubated for a further 72 h. After 72 h of incubation, the growth rate of the cells was determined using the MTT assay according to the manufacturer’s guidelines. […] The IC50 values were calculated from the dose–response curves using linear regression analysis. The experiment was performed in tetraplicates in two individual experiments.
Newly synthesized compounds were evaluated for their cytotoxic activity in vitro against four human cancer cell lines, including human breast adenocarcinoma (MCF-7), ductal pancreatic adenocarcinoma (CFPAC-1), colorectal carcinoma (HT-29), and hepatocellular carcinoma (HepG2), as well as on non-cancerous skin fibroblasts (HFF-1), to check for non-specific toxicity. Furthermore, 5-Fluorouracil (5-FU) was used as a reference drug. The results are expressed as 50% inhibitory concentration (IC50) values and are listed in Table 2, Table 3, Table 4 and Table 5.

In data set [3] the test system is MDCKII-MDR1 cells (P-glycoprotein). Description: MDCKII-MDR1 permeability assay. The format is in vitro ADME, canine cells with over-expressed human MDR1 gene. Conditions: permeability class. The gist of the method:
(§1)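 Bidirectional transport across MDCKII cells overexpressing human MDR1, compounds 10 µM (1% DMSO) for 60 min at 37 °C, with and without 2 µM elacridar. Monolayer integrity checked by Lucifer yellow; compound concentrations quantified by LC-MS/MS (MRM).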

For data set [4], the system named is P-glycoprotein (human MDR1). Nature of the data set: MDCKII-MDR1 permeability assay. Conditions: dog, MDCK-MDR1; for Papp A→B at 60 min, 10 µM / Papp B→A at 60 min, 10 µM: 37 °C; for efflux ratio at 60 min, 10 µM: <2 no efflux, >2 active efflux. It counts as in vitro ADME, canine cells with over-expressed human MDR1 gene. The gist of the method: as §1
Data set [5] in a line: Metabolic stability in mouse liver microsomes. It counts as in vitro ADME. An excerpt: Mouse liver microsomes were obtained from Corning Life Sciences (Corning, NY, USA). DMSO, nicotinamide adenine dinucleotide phosphate (NADP), glucose-6-phosphate, glucose-6-phosphate dehydrogenase, magnesium chloride, propranolol, caffeine, diclofenac, and phosphate-buffered saline (PBS) were purchased from Sigma (St. Louis, MO, USA). Acetonitrile (ACN) and methanol (MeOH) were obtained from Merck (Darmstadt, Germany). Testosterone was purchased from Steraloids (Newport, RI, USA). Metabolic stability was assessed in mouse liver microsomes. Compounds (final concentration of 1 µM, 0.03% DMSO v/v) were incubated in duplicate in phosphate buffer (50 mM, pH 7.4) at 37 °C together with mouse liver microsomes in the absence and presence of the NADPH cofactor (0.5 mM nicotinamide adenine dinucleotide phosphate, 5 mM glucose-6-phosphate, 1.5 U/mL glucose-6-phosphate dehydrogenase, and 0.5 mM magnesium chloride). Incubation and sampling were performed on a Freedom EVO 200 (Tecan, Männedorf, CH, Switzerland) at […], 10, 20, 30, 45, and 60 min. The reaction was quenched using 3 volumes of a mixture of ACN/MeOH (2:1) containing internal standard (diclofenac), centrifuged, and the supernatants were analyzed using LC-MS/MS. The metabolic activity of the microsomes was verified via simultaneous analysis of several controls including testosterone, propranolol, and caffeine. The in vitro half-life (t1/2) was calculated using GraphPad Prism (v9.0 software) non-linear regression of % of parent compound remaining versus time. In vitro clearance, expressed as µL/min/mg, was estimated from the in vitro half-life (t1/2) and normalized for the protein amount in the incubation mixture, assuming 52.5 mg of protein per gram of liver and using constant values for mouse liver weight/body weight [87.5 g/kg] and mouse liver blood flow (LBF) [131 mL/min/kg].
All samples were quantified using tandem mass spectrometry coupled to liquid chromatography. Samples were analyzed on a Sciex API4000 Triple Quadrupole Mass Spectrometer (Sciex, Division of MDS Inc., Toronto, Canada) coupled to a Shimadzu Nexera X2 UHPLC frontend (Kyoto, Japan). Samples were injected onto a UHPLC column (HALO2 C18, 2.1 × 20 mm, 2 µm or Luna Omega 1.6 µm Polar C18 100A, 30 × 2.1 mm) and eluted with a gradient at 50 °C. The mobile phase was composed of acetonitrile/water mixture (9/1, with 0.1% formic acid) and 0.1% formic acid in deionized water. The flow rate was 0.7 mL/min under gradient conditions, leading to a total run time of 1.5–2 min. A positive ion mode with turbo spray, an ion source temperature of 550 °C, and a dwell time of 150 ms were utilized for mass spectrometric detection. Quantitation was performed using multiple reaction monitoring (MRM) at the specific transitions for each compound.

Turning to `OCC(c1ccc(C(F)(F)F)cc1)n1cc(Cn2ccc3c(Cl)ncnc32)nn1` (stereo not shown) [Compound 45a, 4-Chloro-7-((1-(2-hydroxy-1-(4-(trifluoromethyl)phenyl)ethyl)-1H-1,2,3-triazol-4-yl)methyl)-7H-pyrrolo[2,3-d]pyrimidine], in data set [1], the midpoint of inhibition, the IC50, lay at 26 ± 1.2 µM. Also, the “antiproliferative activity (in words)” value in data set [2] is “submicromolar antiproliferative activity”. The Permeability entry in data set [3] is “good membrane permeability; also recorded: MODERATE”. Moreover, in data set [4], the apparent permeability from apical to basolateral (Papp A→B) (as a rule, the apparent permeability from the apical to the basolateral side of a cell layer) at 60 min, 10 µM was determined as 7.6 ×10⁻⁶ cm/s; the Papp B→A (as a rule, how fast a substance crosses the layer from the basolateral side) at 60 min, 10 µM was determined as 66.4 ×10⁻⁶ cm/s; the efflux ratio – broadly, a quotient of directional permeabilities that is used to spot active efflux – at 60 min, 10 µM was 8.8. Further, the “Clearance Values (CL)” value in data set [5] (predicted in vivo hepatic clearance from mouse liver microsome t1/2, 1 µM compound) is recorded as 54%.
Consider `OC(Cn1cc(Cn2cnc3c(Cl)nccc32)nn1)c1ccc(Br)cc1` (stereo not shown) [Compound 49b, 4-Chloro-1-((1-(2-hydroxy-2-(4-bromophenyl)ethyl)-1H-1,2,3-triazol-4-yl)methyl)-1H-imidazo[4,5-c]pyridine], for which the IC50 (usually the concentration at which inhibition is half-maximal) in data set [1] was found to be 10 ± 3.2 µM. In data set [4], the apparent permeability from apical to basolateral (Papp A→B) at 60 min, 10 µM is no more than 2 ×10⁻⁶ cm/s; the basolateral-to-apical permeability (Papp B→A) at 60 min, 10 µM is 36.9 ×10⁻⁶ cm/s; the efflux ratio at 60 min, 10 µM is 23.3. For the same compound, the apparent permeability coefficient (Papp) (commonly the rate of passage across a membrane or cell layer, normalised by area and donor concentration) at 60 min, 10 µM in data set [4] (permeability class) was no more than 2 ×10⁻⁶ cm/s. Moreover, in data set [5] (mouse liver microsomes), the “Clearance Class.” value is given as “LOW (<30% low)”.
